In brackets after ≈: the same amount, converted by molar mass. Like-named read-outs stand apart in the source and are kept apart here.
How the values were obtained:
[1] = TGA weight loss / thermal stability; format: physicochemical
Description: TGA and DSC patterns were collected on a TA Q5000 thermogravimetric analyzer and a TA Discovery 2500 differential scanning calorimeter, respectively.
TGA results were collected on a TA Discovery 5500 thermogravimetric analyzer, and DSC results were collected on a TA Discovery 2500 differential scanning calorimeter.

[2] = Assessment of 24-h solubility in pH buffers; format: physicochemical; settings: room temperature
[3] = Procedure: A method for testing the density and the tapped density included: (1) a certain mass of to-be-assessed sample was placed into a 5 mL measuring cylinder, and the volume at this moment was recorded. The bulk density was calculated by dividing the mass of the sample by the volume at this moment. (2) The measuring cylinder was slightly tapped 200 times, the final volume was recorded, and the tapped density was calculated by dividing the mass of the sample by the final volume. (3) Three parallel tests were conducted. A method for testing the angle of repose included: (1) a funnel was fixed vertically to a bottom surface, and the material was slowly placed into the funnel. (2) A well-proportioned cone of the material was formed on the bottom surface. The height and bottom surface diameter of the cone were measured. (3) Three parallel tests were conducted.
Remark: listed apart in the source
[4] = test system: SD rats; experiment: Acute toxicity test, single oral intragastric administration; format: in vivo; settings: female rats
Procedure: (§1) In this experiment, all animals were randomly divided into 5 groups (5 animals/sex/group), received the drug at 97 mg/kg, 174 mg/kg, 312 mg/kg, 559 mg/kg, and 1000 mg/kg, respectively, and received signal intragastric administration orally. […] All animals received administration according to their latest weighed body weight. The drug was stirred for at least 10 min before administration, and continuously stirred during administration until the administration of the sample at this concentration was completed. The animals were fasted for 11 h to 12 h before administration and resumed eating approximately 2 h after administration, with no restriction on drinking water.
(§2) All animals underwent a comprehensive physical examination by a veterinarian before administration. During the acclimation period, cage-side observation was performed once or twice a day, and detailed clinical observation was performed once a day. During the experiment, cage-side observation was performed twice a day (once on the day of dissection), and detailed clinical observation was performed once or twice a day. All surviving animals were weighed once on the day of random grouping (Day-1), Day 1 (before administration), Day 3, Day 5, Day 7, and Day 8; and their 24±1-hour food consumption was measured once on Day 1 (Day 1 to Day 2), Day 2 (Day 2 to Day 3), and Day 6 (Day 6 to Day 7). At the end of the experimental (Day 8), all surviving animals were euthanized by carbon dioxide inhalation and abdominal aorta/vein bleeding and then subjected to gross anatomical examination. Animals that died during the experiment were also subjected to gross anatomical examination.

[5] = as above; format: in vivo; settings: Sprague-Dawley, rat, in vivo
Procedure: as §1, §2

CC[S@@](=N)(=O)C[C@H]1CC[C@H](N(C)c2ncnc3[nH]ccc23)CC1 [Free crystal form A]
thermal stability ([1]; comparison of TGA/DSC patterns): high
TGA weight loss ([1]; heated from room temperature to 180° C.): 1.7%
FC: crystal transfer ([2]; Buffer (pH = 2.0)): No
FC: crystal transfer ([2]; Buffer (pH = 7.4)): No
solubility at 24 h ([2]; buffer pH 7.4, pH 7.4, aqueous buffer, thermodynamic from solid, Buffer (pH = 7.4), read-out: S: solubility, calculated as free form): 1700 µg/mL (≈ 5.07 mM)
flowability ([3]; conclusion from Carr index and angle of repose): high flowability
Bulk density ([3]; single tests 1 to 3): 0.11 g/mL
Tapped density ([3]; single tests 1 to 3, tapped 200 times): 0.23 g/mL
Average bulk density ([3]; three parallel tests): 0.11 g/mL
Average tapped density ([3]; three parallel tests, tapped 200 times): 0.23 g/mL
UPLC peak Area, RRT 1.00 (25° C./60% RH/4 weeks): 99.71%
UPLC peak Area, RRT 1.47 (25° C./60% RH/4 weeks): 0.06%
UPLC peak Area, RRT 1.63 (25° C./60% RH/4 weeks): 0.05%
UPLC peak Area, RRT 2.10 (25° C./60% RH/4 weeks): 0.10%
UPLC peak Area, RRT 2.94 (25° C./60% RH/4 weeks): 0.07%
Crystal form Transform (25° C./60% RH/4 weeks, open): No
Purity (25° C./60% RH/4 weeks, open): 99.71 area %
UPLC peak Area, RRT 1.00 (40° C./75% RH/4 weeks): 99.72%
UPLC peak Area, RRT 1.47 (40° C./75% RH/4 weeks): 0.06%
UPLC peak Area, RRT 1.63 (40° C./75% RH/4 weeks): 0.05%
UPLC peak Area, RRT 2.10 (40° C./75% RH/4 weeks): 0.10%
UPLC peak Area, RRT 2.94 (40° C./75% RH/4 weeks): 0.07%
Crystal form Transform (40° C./75% RH/4 weeks, open): No
Purity (40° C./75% RH/4 weeks, open): 99.72 area %
UPLC peak Area, RRT 1.47 (80° C./1 d): 0.06%
UPLC peak Area, RRT 1.63 (80° C./1 d): 0.05%
UPLC peak Area, RRT 2.10 (80° C./1 d): 0.10%
UPLC peak Area, RRT 2.94 (80° C./1 d): 0.08%
Crystal form Transform (80° C./1 d, closed): No
UPLC peak Area, RRT 1.47 (Starting): 0.05%
UPLC peak Area, RRT 1.63 (Starting): 0.05%
UPLC peak Area, RRT 2.10 (Starting): 0.10%
UPLC peak Area, RRT 2.94 (Starting): 0.07%
maximum tolerance dose [4]: 174 mg/kg
LD50 at 7 d ([5]; oral, female rats, read-out: LD50 95% confidence interval): 313 to 558 mg/kg
LD50 at 7 d ([5]; oral, male rats, read-out: LD50 95% confidence interval): 429 to 818 mg/kg
MTD at 7 d ([5]; oral, male rats, read-out: maximum tolerance dose (MTD)): 312 mg/kg
LD50 at 7 d ([5]; po, female rats, single intragastric administration, 7 d observation, read-out: LD50): 418 mg/kg
LD50 at 7 d ([5]; po, male rats, single intragastric administration, 7 d observation, read-out: LD50): 592 mg/kg
